Test results as given in patent US12492403B2, “Aptamers and the use thereof in the treatment of cancer” (FUNDACIÓN PARA LA INVESTIGACIÓN BIOMÉDICA DEL HOSPITAL …, priority 2018, dated 2025).

Experiments:
MCF7 cells = assay: MTT activity assay, aptamers transfected with Lipofectamine 2000; type: cell-based, human
Method: (§1) FIG. 3. Effect of the aptamers on MTT activity of MCF7 and MDA-MB-231 cells. The cells were seeded in 96-well plates at a density of 10^4 cells/well. After 16-24 hours, they were transfected with aptamers apMNKQ1, apMNKQ2, apMNKQ3, and apMNKQ4 at 250 nM for 48 hours after which MTT activity assays were performed. The bars represent the mean±SEM of 3-6 independent experiments (*p<0.05, **p<0.01, and ***p<0.001 with respect to the control aptamer AT).
(§2) FIGS. 8A-8C. Effect of aptamer apMNKQ2 on MTT activity of breast cell lines. MCF7, MDA-MB-231, and MDA-MB-468 cells were seeded in 96-well plates at a density of 10^4 cells/well. […] The graphs represent the means±SEM of 3 independent experiments (*p<0.05, **p<0.01, and ***p<0.001 with respect to the control AT).
(§3) The Lipofectamine™ 2000 system (Invitrogen, USA) was used to treat cells with the different aptamers. To prepare the DNA-lipofectamine complex, lipofectamine and DNA were separately diluted in opti-MEM (Gibco, USA) and left to incubate at room temperature for 5 minutes. They were then mixed to form lipofectamine-DNA complexes and incubated for 20 minutes at room temperature. Finally, the mixture was added to the cells that had been washed twice with antibiotic-free medium to prevent the interference thereof with lipofectamine. The cells were incubated at 37° C. for 5 hours, after which the reagent was removed and a complete medium was added.
(§4) MTT activity. The cells were seeded in 96-well plates and after having been transfected, the culture medium was removed and 100 μL/well of MTT at 1 mg/ml in culture medium were added. The plates were incubated for 90 minutes in an incubator with a moisture-saturated environment at 37° C. and 5% CO2/[…] and 100 μL/well of a lysis solution (10% SDS and 10 mM HCl) were added for dissolving the crystals. After 48 hours, the reduction of MTT was determined by means of spectrophotometry in Infinite F200 (TECAN, Switzerland) at 540 nm.
(§5) The results were expressed as the percentage of viability with respect to the control or in absorbance units.

MDA-MB-231 cells = assay: as above; type: cell-based, human
Method: as §1, §2, §3, §4, §5

MDA-MB-468 cells = assay: as above; type: cell-based, human; conditions: MDA-MB-468, MTT activity at 48 hours, 0 to 500 nM
Method: as §2, §3
MTT activity. The cells were seeded in 96-well plates and after having been transfected, the culture medium was removed and 100 μL/well of MTT at 1 mg/ml in culture medium were added. […] After 48 hours, the reduction of MTT was determined by means of spectrophotometry in Infinite F200 (TECAN, Switzerland) at 540 nm.
as §5

MNK1 = assay: Apta-western with biotin-labeled aptamer; type: binding
Source text: FIGS. 6A-6C. Characterization of the interaction of aptamer apMNKQ2 with MNK1 by means of Apta-western. Detection of MNK1a and MNK1b, as well as of the two GST-bound variants MNK1aΔ77 and MNK1ΔCt, with biotin-labeled aptamer apMNKQ2 in electrophoresis (12%) in denaturing conditions (FIG. 6A) and in native conditions (without SDS or β-mercaptoethanol) (FIG. 6B). Quantification of protein levels in relation to MNK1a (*p<0.05 with respect to 1) (FIG. 6C).
In the apta-western assays, the proteins were resolved in polyacrylamide gels in native or denaturing conditions, transferred to PVDF membranes, and incubated with aptamers and streptavidin-peroxidase as indicated above after blocking with 5% PBS-BSA. Finally, the signal was visualized with the chemiluminescence developing system (Clarity Western ECL, BioRad, USA).
On the other hand, apta-western assays were carried out to confirm the affinity of the aptamer apMNKQ2 for proteins MNK1a and MNK1b. To that end, the four constructs used in FIG. 5A were analyzed by electrophoresis, blot, and apta detection. […] This may be due to the fact that the site the aptamer recognizes may not be accessible in all the proteins when they are structured and said site may be exposed as the proteins denature. […] The result is shown in FIG. 6B and quantified in FIG. 6C.

5′TGGGGTGGGCGGGCGGGGGTGGGGGTGGT-3′ (DNA, backbone and methylation of C not given here; further chemistry not fully specified) [apMNKQ2]
GI50 (MCF7 cells; MCF7, MTT activity at 48 hours, 0 to 500 nM): 42 nM | cell proliferation (MTT activity) reduced to (MCF7 cells; MCF7, aptamer 250 nM, 48 hours after transfection): 51% | GI50 (MDA-MB-231 cells; MDA-MB-231, MTT activity at 48 hours, 0 to 500 nM): 144 nM | cell proliferation (MTT activity) reduced to (MDA-MB-231 cells; MDA-MB-231, aptamer 250 nM, 48 hours after transfection): 36% | GI50 (MDA-MB-468 cells): 19 nM | recognition of MNK1a, MNK1b, MNK1aΔ77 and MNK1ΔCt (apta-western) (MNK1; denaturing conditions): capable of recognizing and binding to the four isoforms of the protein in a similar manner | recognition of MNK1a, MNK1b, MNK1aΔ77 and MNK1ΔCt (apta-western) (MNK1; native conditions (without SDS or β-mercaptoethanol)): capable of significantly differentiating MNK1b from other isoforms
